Where two headings read alike, the source gives them in different places.
Tested on: Phytophthora infestans
Assay type: in vivo
Settings: potted tomato plants, untreated plants 90% infestation
[1] = 1 day of protective treatment, 250 ppm
[2] = 3 days of protective treatment, 250 ppm

Row | SMILES | infestation [1] [%] | infestation [2] [%] | infestation (1 day of protective treatment, 16 ppm) [%]
1 | CCCCCCCCOCCCc1c(CCC)nc2ncnn2c1N [comparative compound B] | 90 | 90 | –
2 | CCCCCCCCc1c(C)nc2ncnn2c1N [comparative compound A] | – | 90 | 70
3 | CCCCCCCCOCCCc1c(COC)nc2ncnn2c1N [I-4] | 1 | – | –

From patent US20080262000A1, “5-Alkoxyalkyl-6-alkyl-7-Aminoazolopyrimidines, Process for Their Preparation, Their Use for Controlling Harmful Fungi, and Compositions Comprising Them” (BASF Aktiengesellschaft, priority 2005, published 2008)
